The text below walks through data of patent US20150011566A1, “N-PHENYLPIPERAZINE DERIVATIVES THAT ARE ANTAGONISTS OF A1A, A1D ADRENOCEPTORS AND 5-HT1A RECEPTORS FOR THE TREATMENT OF BENIGN PROSTATE HYPERPLASIA, PHARMACEUTICAL COMPOSITIONS CONTAINING THE SAME” (UNIVERSIDADE FEDERAL DO RIO DE JANEIRO-UFRJ, priority 2012, published 2015).

The structures appear in SMILES notation. Structures can show the parent of a compound that is named as a salt. Marks after values point to notes of the source that are not given here.

For one test, the target named is T1, α1D adrenoceptors (Rattus norvegicus, UniProt P23944).
T1 construct: the rat thoracic aorta corresponds to a tissue expressing mainly α1D-adrenoceptors; from tissue; host or cells: rat thoracic aorta rings
T1 sequence (P23944 1-561): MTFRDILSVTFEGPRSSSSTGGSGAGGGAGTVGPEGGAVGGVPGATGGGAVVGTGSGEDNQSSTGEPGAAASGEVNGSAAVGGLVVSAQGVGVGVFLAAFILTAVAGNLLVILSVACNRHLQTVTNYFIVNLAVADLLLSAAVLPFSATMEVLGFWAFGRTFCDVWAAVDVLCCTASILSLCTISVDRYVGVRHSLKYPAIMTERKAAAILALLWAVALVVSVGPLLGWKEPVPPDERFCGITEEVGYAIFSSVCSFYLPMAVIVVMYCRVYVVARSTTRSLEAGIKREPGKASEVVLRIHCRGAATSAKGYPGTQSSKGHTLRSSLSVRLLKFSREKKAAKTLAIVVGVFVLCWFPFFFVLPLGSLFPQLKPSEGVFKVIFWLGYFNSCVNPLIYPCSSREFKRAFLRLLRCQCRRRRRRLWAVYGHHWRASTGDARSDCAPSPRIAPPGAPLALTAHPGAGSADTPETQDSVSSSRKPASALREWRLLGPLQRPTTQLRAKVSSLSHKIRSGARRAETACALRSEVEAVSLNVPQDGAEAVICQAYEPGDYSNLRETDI
The test can be described thus: Phenylephrine-induced contraction inhibition in rat aorta (isometric contraction, Schild KB). The test is classed as cell-based. The settings on record: ratio of EC50 in presence and absence of test substance, 10 nM. The protocol:
Isometric contraction assays were performed using Male Wistar rats, aged 2.5-3 months euthanized as described above. The thoracic aorta (tissue enriched in functional α1D adrenergic receptors) was removed, free from adjacent connective and adipose tissues cut in 3 mm segments. […] The aort segments were then subjected to a preload of 20 mN per 60 minutes. After recovery of tissues maintained for 1 hour at rest, it was performed a contraction induced by phenylephrine (PE) 1 μM (α1 adrenergic receptors selective agonist). In this plateau contraction, in order to promote endothelium-dependent relaxation resulting from the activation of the enzyme endothelial nitric oxide synthase (eNOS) and subsequent release of nitric oxide (NO), acetylcholine 1 μM was added. Rings that relaxed at least 80% were considered to have intact endothelium, were used.
Then the preparation was washed and allowed to stand for 1 hour in order to recover the tissue. Then it was performed cumulative curves to phenylephrine (10^−9 to 10^−5 M) in the presence of propranolol 1 μM (β-adrenoceptor blocker receptors) before and after incubation for 1 hour of the LDT's at 10 or 50 nM. In parallel, a temporal control was performed to rule out any artifacts on the measured contraction, where was added only the vehicle (ultrapure water Milli Q®) instead of the substance to be tested. Strictly following the same protocol as the other tanks wherein it was added the LDT's.
The data were scanned in MacLab 8S system connected to the isometric tension transducer Grass FT-03, which recorded the voltage variation in milinewtons (mN) generated throughout the analysis. The digitized data were then analyzed by Chart 3.4/s software program (MacLab, Inc., USA). In the pharmacological screening process, the initial concentration of the used LDT's was 50 nM, which is considered as cut concentration, i.e., substances that have no effect at this concentration would not investigated in this test. […] The ratio of the EC50 value in these two conditions (with and without LDT) matches the third parameter, called “concentration ratio” (or RC).
log(CR−1)=log [B]−log KB (Equation 1)
Where CR=concentration ratio (EC′50/EC50); [B]=‘B’ antagonist concentration; KB=equilibrium dissociation constant of the antagonist ‘B’.
With this in view, the functional tests of contraction in isolated organ model were performed using these tissues. […] Similarly, targeting to rule out any artifacts on the measured contraction, a time control was performed where only the vehicle was added (ultrapure Mili Q® water) in place of the substance to be tested, strictly following the same protocol as the other vats were added to the LDT's (FIG. 1).

A further test addresses T2, α1D receptors (Homo sapiens, UniProt P25100).
T2 construct: endogenous in cells; host or cells: DU-145
T2 sequence (P25100 1-572): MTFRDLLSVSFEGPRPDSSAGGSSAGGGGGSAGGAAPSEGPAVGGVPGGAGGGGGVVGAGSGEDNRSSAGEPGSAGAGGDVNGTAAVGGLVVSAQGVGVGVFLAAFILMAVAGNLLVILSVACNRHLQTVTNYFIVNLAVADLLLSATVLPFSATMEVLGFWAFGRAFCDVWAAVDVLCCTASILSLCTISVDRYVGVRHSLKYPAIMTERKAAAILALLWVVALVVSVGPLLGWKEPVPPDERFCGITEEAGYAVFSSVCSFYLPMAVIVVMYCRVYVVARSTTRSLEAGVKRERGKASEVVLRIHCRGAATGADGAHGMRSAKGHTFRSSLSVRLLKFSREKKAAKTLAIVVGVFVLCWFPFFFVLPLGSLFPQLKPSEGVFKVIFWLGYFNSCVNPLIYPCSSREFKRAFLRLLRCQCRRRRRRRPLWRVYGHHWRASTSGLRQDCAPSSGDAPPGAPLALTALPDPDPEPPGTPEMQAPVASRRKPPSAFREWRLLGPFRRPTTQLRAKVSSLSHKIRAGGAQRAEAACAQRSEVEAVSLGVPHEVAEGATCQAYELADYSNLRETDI
Put plainly: Cell proliferation in vitro, DU-145 cells stimulated with phenylephrine (MTT). The class given is cell-based. The settings on record: 48 h. As for the experimental part:
(§1) Human prostate cancer cells (DU-145) were cultured in medium (RPMI 1640) until confluence. Then the cells were dissociated, plated (5×10^3 cells/well) and maintained in medium free of fetal bovine serum for 24 hours. […] Cell proliferation was assessed by using the MTT technique (MOSMANN, T. Immunol Methods. 16; 65 (1-2):55-63, 1983).

The next test deals with prostate cells. The settings on record: DIZEYI et al. Prostate 59 (3): 328-336, 2004; cited from earlier work.
A further test concerns the target T3, α2A receptors (Rattus norvegicus, UniProt P22909).
T3 construct: Membrane preparations of rat cortex as described previously in the literature were performed; from tissue; host or cells: rat cortex membranes
T3 sequence (P22909 1-465): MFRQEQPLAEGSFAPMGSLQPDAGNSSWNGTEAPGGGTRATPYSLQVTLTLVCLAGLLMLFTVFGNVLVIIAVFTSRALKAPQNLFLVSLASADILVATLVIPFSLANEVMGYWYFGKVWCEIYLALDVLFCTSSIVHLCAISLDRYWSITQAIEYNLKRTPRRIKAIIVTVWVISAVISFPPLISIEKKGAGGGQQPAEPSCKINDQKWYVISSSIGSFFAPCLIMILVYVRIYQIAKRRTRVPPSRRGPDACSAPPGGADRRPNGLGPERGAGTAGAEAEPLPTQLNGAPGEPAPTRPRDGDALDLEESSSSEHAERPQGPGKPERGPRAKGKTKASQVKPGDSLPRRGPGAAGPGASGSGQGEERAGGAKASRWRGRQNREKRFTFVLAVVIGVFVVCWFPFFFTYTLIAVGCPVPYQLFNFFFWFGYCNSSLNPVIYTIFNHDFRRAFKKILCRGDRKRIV
Put plainly: Binding of [3H]RX821002 to α2A receptors (rat cortex membranes). The settings on record: saturation assay.

Test [1] deals with T4, 5-HT1A receptors (Rattus norvegicus, UniProt P19327).
T4 construct: Intrinsic Activity at Native 5-HT1A Receptors; from tissue; host or cells: rat hippocampus membranes
T4 sequence (P19327 1-422): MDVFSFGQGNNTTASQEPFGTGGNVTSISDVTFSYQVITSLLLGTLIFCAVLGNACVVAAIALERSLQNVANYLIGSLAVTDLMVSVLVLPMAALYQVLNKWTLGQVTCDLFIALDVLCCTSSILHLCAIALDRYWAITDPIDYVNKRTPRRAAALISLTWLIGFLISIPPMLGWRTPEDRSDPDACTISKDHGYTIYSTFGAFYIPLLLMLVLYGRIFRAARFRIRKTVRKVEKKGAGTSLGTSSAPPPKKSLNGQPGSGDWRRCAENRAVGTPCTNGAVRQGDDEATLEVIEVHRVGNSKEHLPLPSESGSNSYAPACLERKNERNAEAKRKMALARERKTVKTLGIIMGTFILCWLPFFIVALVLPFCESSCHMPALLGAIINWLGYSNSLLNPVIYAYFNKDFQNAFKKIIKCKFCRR
The test can be described thus: Binding of [3H]p-MPPF with GTP to 5-HT1A receptors; intrinsic activity (Ki low/Ki high). The settings on record: Table 13; from Ki low/Ki high. As for the experimental part:
Membrane preparations of rat hippocampus according to previously described by HALL et al (1985) and PEROUTKA (1986) were performed. The homogenization and centrifugation steps were performed identically to that described above for receptors α2A and 5-HT2A receptors.
The binding assays for the 5-HT1A receptors were performed as described previously in the literature and previously standardized in the laboratory through saturation experiments. […] (solvent for dilution of LDT's) for the determination of total binding, or 50 μL non-radioative serotonin at 10 μM to determine the non-specific binding (final volume of 500 μL). Assays were performed in triplicate. […] Assays were performed in triplicate.
After the incubation period, the reaction was stopped by adding 4 ml of ice-cold solution containing 5 mM Tris (pH 7.4), followed by vacuum filtration on glass fiber filter (GMF 3, Filtrak®) previously soaked with solution 0.5% polyethylenoimine. The filters were washed three times with 4 mL of ice-cold solution containing 5 mM Tris (pH 7.4) under vacuum to remove all free radioligand. Then the filters were dried and placed in vials containing 5 ml scintillation fluid (composition: 4% PPO, 0.1% POPOP w/p in toluene). The radioactivity retained on the filters was then determined in a liquid scintillation counter (Packard Tri-Carb 1600 TR). […] For these receptors were also determined the […] and Ki parameters.
The GTP presence displaces the GPCR to a state of low affinity (Lahti et al, 1992). The intrinsic activity of a substance can be estimated using GPCR agonist or antagonist radioligand appropriate to define the affinity of the substance in the state of high and low affinity receptor, respectively.

Test [2] deals with T5, 5-HT1A receptors (Homo sapiens, UniProt P08908).
T5 construct: endogenous in cells; host or cells: DU-145
T5 sequence (P08908 1-422): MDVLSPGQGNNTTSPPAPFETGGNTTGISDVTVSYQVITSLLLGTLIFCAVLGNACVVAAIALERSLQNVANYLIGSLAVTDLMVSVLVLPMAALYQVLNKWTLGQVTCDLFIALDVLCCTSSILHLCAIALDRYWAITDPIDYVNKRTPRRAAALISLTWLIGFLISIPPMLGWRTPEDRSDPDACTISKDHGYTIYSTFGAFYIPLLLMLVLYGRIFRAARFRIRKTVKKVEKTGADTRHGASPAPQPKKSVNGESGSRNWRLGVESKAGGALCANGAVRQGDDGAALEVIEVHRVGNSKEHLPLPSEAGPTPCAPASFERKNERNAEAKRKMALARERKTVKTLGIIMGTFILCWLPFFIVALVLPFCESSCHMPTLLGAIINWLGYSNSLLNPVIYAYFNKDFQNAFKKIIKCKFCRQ
Put plainly: Cell proliferation in vitro, DU-145 cells stimulated with 5-HT (MTT). The test is classed as cell-based. The settings on record: 48 h. As for the experimental part:
as §1

As to `COc1ccccc1N1CCN(CCN2C(=O)CC3(CCCC3)CC2=O)CC1` [BMY7378, reference compound], at α1D adrenoceptors, the “CR ± EPM” value turned out to be 4.4 ± 0.8. The “Proliferation percentage in relation to basel (100%) in the presence of LDT's, α1D” value at α1D receptors (DU-145, phenylephrine 3 μM + test substance 50 nM) is on record as 90.98 ± 11.7^a %.
In the case of `CCOc1ccccc1OCCN[C@H](C)Cc1ccc(OC)c(S(N)(=O)=O)c1` [tamsulosin], the “inhibition of cell proliferation” value with prostate cells is listed as “does not inhibit cell proliferation”.
`CNC[C@H](O)c1cccc(O)c1` [Phenylephrine, (R)-(−)-phenylephrine hydrochloride, reference compound]: the “Proliferation percentage in relation to basel (100%), α1D” value on α1D receptors (DU-145, stimulus alone, phenylephrine 3 μM) is on record as 138.8 ± 2.6%.
Usually Kd stands for the concentration at which binding is half-saturated. Low readings indicate higher affinity, high ones lower affinity. Turning to `COC1(C2=NCCN2)COc2ccccc2O1` (centres unmarked) [[3H] RX821002], binding on α2A receptors was characterised by a dissociation constant (Kd) of 2.05 ± 0.28 nM.
On to `Cl.NCCc1c[nH]c2ccc(O)cc12` [5-HT, 5-hydroxytryptamine hydrochloride], for which the pharmacological classification result at 5-HT1A receptors [1] is “full antagonist”. The “Proliferation percentage in relation to basel (100%), 5-HT1A” value at 5-HT1A receptors [2] (DU-145, stimulus alone, 5-HT 1 μM) is on record as 137.1 ± 5.2%.
Take `COc1ccccc1N1CCN(CCN(C(=O)c2ccc(F)cc2)c2ccccn2)CC1` [p-MPPF, reference compound]: the “Proliferation percentage in relation to basel (100%) in the presence of LDT's, 5HT1A” value at 5-HT1A receptors [2] (DU-145, 5-HT 1 μM + test substance 50 nM) is on record as 88.9 ± 11.5^b %.
